The record followed here is patent US7494784B2, “Method of treating cell-migration conditions or diseases” (Wisconsin Alumni Research Foundation, priority 2003, dated 2009).

One test concerns Src family kinases. In words: Tyrosine phosphorylation of PIPKIγ661 in cells with Src-specific inhibitor. It is filed as cell-based. From the text:
In the FAK signaling pathway, Src family tyrosine kinases bind to and are activated by FAK, playing a fundamental role in focal adhesion organization (Parsons, et al. (2000) Oncogene 19:5606-5613; Cobb, et al (1994) Mol. Cell. Biol. 14:147-155; Schaller, et al. (1994) Mol. Cell. Biol. 14:1680-1688; Schaller, et al. (999) Mol. Cell. Biol. 10:3489-3505). To determine if Src family kinases phosphorylate PIPKIγ661, Src-specific inhibitor PP2 was employed. […] PIPKIγTyr^649->Phe is efficiently phosphorylated by c-Src.
HEK 293T cells and NRK cells were cultured in Dulbecco's modified Eagle's medium (DMEM) (Mediatech, Inc., Herndon, Va.) supplemented with 10% fetal bovine serum (INVITROGEN™, Carlsbad, Calif.) and antibiotics. NRK cells were transfected using FUGENE™ 6 (Roche, Indianapolis, Ind.) according to manufacturer's instructions for 24 hours. […]
Immunoprecipitation was performed using standard methods (Zhang, et al. (1997) J. Biol. Chem. 272:17756-17761). […] The immunocomplexes were washed with Buffer A, separated by SDS-polyacrylamide gel electrophoresis (SDS-PAGE), and analyzed as indicated. […]

Another test has as its target T1, GST-talin head (Homo sapiens, UniProt Q9Y490).
T1 construct: Human talin1 head region (1-435) was cloned from HEK293T cells by PCR and subcloned into pET42; made in house; host or cells: E. coli BL21(DE3)
In words: GST pull-down competition: displacement of His-β1-integrin tail from GST-talin head. It is filed as binding. The conditions noted are these: for binding affinity for talin compared with unphosphorylated peptide PN: binding assay between talin and integrin (FIG. 2); for binding affinity to talin of phosphorylated β1-integrin peptides: competing integrin tail binding from talin. The method, then:
Talin interactions were assessed by GST pull-down using recombinant GST-talin head, His-PIPKIγ635 C-terminus, His-PIPKIγ661 wild-type or Tyr to Phe mutant C-terminus, and His-β1-integrin tail. […] Peptides containing the PIPKIγ661/talin binding sequence (Di Paolo, et al. (2002) supra) were designed to include phosphorylated Tyr^644, phosphorylated Tyr^649, and dual phosphorylated Tyr^644 and Tyr^649.
In a screening assay to identify an agent which modulates the activity of PIPKIγ661 as defined by the binding interaction between PIPKIγ661 and talin, the step of detecting the activity of PIPKIγ661 is carried out by detecting and measuring the binding of PIPKIγ661 to talin. The detection and measurement of this binding interaction will be dependent on the type of screening assay performed and the labels used. Such screening assays to detect binding between two proteins in the presence of a test agent are well-known in the art. […] An exemplary binding assay of this type was conducted using PIPKIγ661 peptides of the sequence Cys-Asp-Glu-Arg-Scr-[…](peptide designated PN; SEQ ID NO:12) which are encompassed within the C-terminal 25 amino acid residues of PIPKIγ661 and interact with talin at the same site as integrin. […] Fluorescent probes may be linked to the cysteine residue using conventional thiol or thiolester linkages. […] In this assay, an agent which is an inhibitor of the interaction between PIPKIγ661 and talin blocks binding of a peptide of SEQ ID NO:12 and changes the fluorescent emission anisotropy as compared to a control (e.g., binding in the absence of the inhibitor).
(§1) Purified GST-talin head proteins were incubated with PIPKIγ661 tails or β1-integrin tail, together with Glutathione SEPHAROSE™ 4 Fast Flow (Amersham Biosciences, Piscataway, N.J.), in Buffer B (PBS, 0.2% NP-40, 2 mM DTT) at 4° C. for 4 hours. The beads were washed three times with Buffer B and analyzed by western blot. For competition assays, GST-talin head proteins were incubated with peptides or competing proteins for 2 hours, then the binding proteins were added and the mixtures were incubated for another 4 hours.

A further test deals with GST-talin Lys^357->Gln (Homo sapiens, UniProt Q9Y490, K357Q). As to conditions: peptide competing His-PIPKIγ661 binding.
Excerpt: (§2) From structural studies of integrin binding to talin, a conserved tryptophan in β-integrin tail is positioned near two basic residues, Lys^357 and Arg^358 of talin F3 lobe (Garcia-Alvarez, et al. (2003) supra). […] The role of PIPKIγ661 phosphorylation was examined by using phosphorylated peptides to compete His-PIPKIγ661 binding to wild-type or mutant GST-talin. […] To further analyze this, β1-integrin peptides phosphorylated at Thr of Trp-Asp-Thr and at Tyr of Asn-Pro-Ile-Tyr (SEQ ID NO: 1) were synthesized and used to compete integrin tail binding from talin.
(§3) Human talin1 head region (1-435) was cloned from HEK293T cells by PCR and subcloned into pET42. The C-terminal truncated or site-directed mutagenesis for the PIPKIγ661 mutants or talin head was performed using PCR-primer overlap extension with mutagenic primers. PIPKIγ661 mutants were then subcloned into pcDNA3.1 and talin head mutants were subcloned into pET42. His-tagged mouse β1-integrin tail was made using well-established methods (Pfaff, et al. (1998) supra) and subcloned into pET28. The C-terminus of PIPKIγ635 (439-635), PIPKIγ661 (439-661), or the Tyr to Phe mutants of PIPKIγ661 were PCR amplified from the corresponding pcDNA3.1 constructs and subcloned into pET28. […] FAK, FAKTyr397Phe, kinase dead FAK and c-Src constructs were generated using well-known methods.
as §1

The next test deals with GST-talin Arg^358->Gln (Homo sapiens, UniProt Q9Y490, R358Q). As to conditions: peptide competing His-PIPKIγ661 binding.
Excerpt: as §2, §3, §1

The next test concerns HEK293T cells. In words: Co-immunoprecipitation of talin with PIPKIγ661 from suspended HEK293T cells after stimulation. The conditions noted are these: stimulated. It counts as cell-based. On the procedure: The association between PIPKIγ661 and talin was also regulated by adhesion to type I collagen. […] However, in suspended cells, the PIPKIγ661 association with talin was restored when cells were stimulated with lysophosphatidic acid (LPA) or platelet-derived growth factor (PDGF).
Immunoprecipitation was performed using standard methods (Zhang, et al. (1997) J. Biol. Chem. 272:17756-17761). Briefly, transfected HEK293T cells were harvested and lysed in Buffer A (50 mM Tris-HCl, pH 7.5, 150 mM NaCl, 0.1-1.0% NP-40, 5.0 mM NaF, 2 mM Na3VO4, 4 mM Na2P2O7, 1 mM EDTA, 0.1 mM EGTA, 1 mM phenylmethyl sulphonyl fluoride (PMSF), 10% glycerol), centrifuged and incubated with protein A—Sepharose and 5 μg anti-HA, anti-c-Myc, anti-Flag, anti-PIPKIγ or anti-talin antibody as indicated at 4° C. for 4 hours to overnight. The immunocomplexes were washed with Buffer A, separated by SDS-polyacrylamide gel electrophoresis (SDS-PAGE), and analyzed as indicated. For the kinase assay, the immunocomplexes were washed and stored in kinase buffer.
Transfected HEK 293T cells were washed with phosphate-buffer saline (PBS) and detached with 0.25% trypsin at 37° C. The cells were harvested and washed with PBS, and suspended in serum-free DMEM at 37° C. for 1 hour. […]

T1 sequence (Q9Y490 1-435): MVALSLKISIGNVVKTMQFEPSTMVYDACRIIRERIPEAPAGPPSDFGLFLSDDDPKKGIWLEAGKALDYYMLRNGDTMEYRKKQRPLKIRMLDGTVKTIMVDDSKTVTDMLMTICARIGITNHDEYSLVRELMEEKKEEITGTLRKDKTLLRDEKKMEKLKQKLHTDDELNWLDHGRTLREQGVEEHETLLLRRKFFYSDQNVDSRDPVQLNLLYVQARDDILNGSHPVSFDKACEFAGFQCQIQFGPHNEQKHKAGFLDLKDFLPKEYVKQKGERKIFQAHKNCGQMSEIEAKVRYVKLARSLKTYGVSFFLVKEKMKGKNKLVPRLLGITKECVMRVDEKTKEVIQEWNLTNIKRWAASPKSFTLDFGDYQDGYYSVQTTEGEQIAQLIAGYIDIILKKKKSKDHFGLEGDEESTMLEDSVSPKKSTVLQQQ
Chain of GST-talin Lys^357->Gln (Q9Y490 1-435 K357Q): as the sequence (Q9Y490 1-435) above, with K357Q counted along it
Chain of GST-talin Arg^358->Gln (Q9Y490 1-435 R358Q): as the sequence (Q9Y490 1-435) above, with R358Q counted along it

As for `CC(C)(C)n1nc(-c2ccc(Cl)cc2)c2c(N)ncnc21` [PP2], the “FAK-induced tyrosine phosphorylation of PIPKIγ661” value in the test with Src family kinases (FAK-induced) is recorded as “dramatically inhibited”. The “basal tyrosine phosphorylation of PIPKIγ661” value in the test with Src family kinases (basal) is on record as “dramatically inhibited”.
As to “Cys-As-Glu-Arg-Ser-Trp-Val-*Tyr-Ser-Pro-Leu-His-Tyr-Ser-Ala-Arg [pY644]”, at GST-talin head, the “binding affinity for talin compared with unphosphorylated peptide PN” value is “higher binding affinity”. Also, on GST-talin Lys^357->Gln, the “affinity of binding to talin mutant Lys^357->Gln” value is listed as “retained high affinity binding”. Also, the “affinity of binding to talin mutant Arg^358->Gln” value on GST-talin Arg^358->Gln was “loss of affinity”.
Turning to “Cys-Asp-Glu-Arg-Ser-Trp-Val-*Tyr-Ser-Pro-Leu-His-*Tyr-Ser-Ala-Arg [pY644/649]”, the “binding affinity for talin compared with unphosphorylated peptide PN” value on GST-talin head was “higher binding affinity”.
Take “Cys-Asp-Glu-Arg-Ser-Trp-Val-Tyr-Ser-Pro-Leu-His-*Tyr-Ser-Ala-Arg [pY649]”: the “binding affinity for talin compared with unphosphorylated peptide PN” value on GST-talin head is listed as “higher binding affinity”. Besides, the “affinity of binding to talin mutant Lys^357->Gln” value at GST-talin Lys^357->Gln is “lower affinity”. The “affinity of binding to talin mutant Arg^358->Gln” value at GST-talin Arg^358->Gln is recorded as “loss of affinity”.
“Cys-Asp-Glu-Arg-Ser-Trp-Val-Tyr-Ser-Pro-leu-His-Tyr-Ser-Ala-Arg [PN]”: the “displacement of His-β1-integrin from GST-talin” value at GST-talin head (in vitro) is given as “poorly displaced”.
Consider “Cys-Met-Asn-Ala-Lys-Tp-Asp-Thr-Gly-Glu-Asn-Pro-Ile-*Tyr-Lys-Ser-Ala [β1 InpY]”, for which the “binding affinity to talin of phosphorylated β1-integrin peptides” value at GST-talin head is given as “lower binding affinity”.
Still for that read-out and setting: the entry for “Cys-Met-Asn-Ala-Lys-Trp-Asp-*T-Gly-Glu-Asn-Pro-Ile-Tyr-Lys-Ser-Ala [β1InpT]” is “did not increase binding affinity”.
In the case of PDGF, the “PIPKIγ661 association with talin” value in the test with HEK293T cells is given as “restored”.
“lysophosphatidic acid [LPA, reference compound]”: the “PIPKIγ661 association with talin” value with HEK293T cells is on record as “restored”.

B1: His-PIPKIγ661: recombinant His-tagged PIPKIγ661 wild-type C-terminus (439-661) (protein)
chain: MSSTVFRKSSSLKSSPSKKGRGALLAVKPLGPTAAFSASQIPSEREDVQYDLRGARSYPTLEDEGRPDLLPCTPPSFEEATTASIATTLSSTSLSIPERSPSDTSEQPRYRRRTQSSGQDGRPQEEPHAEDLQKITVQVEPVCGVGVVPKEEGAGVEVPPCGASAAASVEIDAASQASEPASQASDEEDAPSTDIYFPTDERSWVYSPLHYSARPASDGESDT
modifications: left off: small tags and cut ends
For B1, the “competition with His-β1-integrin for binding to GST-talin” value with GST-talin head (recombinant C-terminus proteins) is reported as “competed with His-β1-integrin for binding to GST-talin in a dose-dependent manner”.
